Measurements from patent US20250304587A1, “WEE1 INHIBITOR, PREPARATION THEREFOR AND USE THEREOF” (JIANGSU TASLY DIYI PHARMACEUTICAL CO., LTD., priority 2022, published 2025).

What was measured:
HT-29 cells = assay: Cell Titer-Glo anti-proliferation, HT-29 cells; assay type: cell-based, human; settings: 3 days, read-out: Anti-proliferative activity HT-29 (IC50 class)
Procedure, shortened: (§1)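 Each line was exposed to graded compound concentrations for 3 days at 37 °C, 5% CO2, with final DMSO at 0.2%. Viability was measured by Cell Titer-Glo luminescence, with untreated cells as the maximum and medium as the minimum signal. IC50 came from a variable-slope log(inhibitor)-response fit.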

plasma protein [1] = assay: Plasma protein binding (equilibrium dialysis), mouse; settings: mouse plasma, 1 μM, 5 h dialysis
HK2 cells = assay: Cell Titer-Glo anti-proliferation, normal cells HK2; assay type: cell-based
Protocol: (§2) Compound solutions of different concentration gradients were prepared. […] The cell growth group without compound was used as a positive control (maximum signal control) and the medium was used as a negative control (minimum signal control), while ensuring that the final level of DMSO in each reaction well was 0.2%. After removing the medium from the 384-well plate, 25 μl of the configured compound at different concentrations was transferred into the well plate and the compound and cells were incubated in the cell incubator at 37° C. with 5% CO2 for 3 days.
(§3) The 384-well plates were removed from the cell incubator and allowed to equilibrate for 1 h to room temperature. 25 μl of Cell Titer-Glo assay was added to each well, lysed on a shaker for 2 min and then read out (Luminescence) using a BMG PHERAStar after 10 min incubation. Calculate the inhibition rate from the luminescence signal.
(§4) to calculate the rate of inhibition of the cells by different concentrations of the compounds. The IC50 of the compound on cell activity inhibition was calculated by fitting a log(inhibitor) vs. response-Variable slope model to GraphPad Prism 6. The fitted equation was: Y=Bottom+(Top-Bottom)/(1+10^((Log IC50−X)*HillSlope)), where Y represents the rate of inhibition and X represents the concentration of the known compound after Log.
(§5) B. Evaluation of the Anti-Proliferative Effect of Compounds by the Cell Titer-Glo Method on Normal Cells HUVEC and HK2.
(§6) The test method is the same as the anti-proliferative activity evaluation of tumor cells.

HUVEC cells = assay: Cell Titer-Glo anti-proliferation, normal cells HUVEC; assay type: cell-based
Protocol: as §2, §3, §4, §5, §6

BxPC3 cells = assay: Cell Titer-Glo anti-proliferation, BxPC3 cells; assay type: cell-based, human; settings: 3 days, read-out: Anti-proliferative activity BxPC3 (IC50 class)
Procedure, shortened: as §1

Caco-2 cells = assay: Membrane permeability in Caco-2 model; assay type: in vitro ADME; settings: for Efflux Ration: Caco2; for Papp A to B / Papp B to A: Caco2, 10 μM, 90 min
Protocol: (§7) Caco-2 cells were purchased from the American Model Tissue Cell Collection (Rockville, MD). The cell culture medium was modified Eagle's medium (MEM) containing 10% inactivated fetal bovine serum and 1% non-essential amino acids. […] The cells were incubated for 21-28 days after inoculation for transport experiments and the apparent permeability (Papp) of Lucifer Yellow was used to characterize and verify the compactness of the cell monolayer. […] After the incubation, dilute the samples on the apical side and basolateral side, and the concentrations of compounds on the apical and basolateral sides were detected by LC-MS/MS, and the concentrations of the compounds were quantified by standard curve.

OVCAR-3 cells = assay: Cell Titer-Glo anti-proliferation, OVCAR-3 cells; assay type: cell-based; settings: 3 days, read-out: Anti-proliferative activity OVCAR-3 (IC50 class)
Procedure, shortened: as §1

[2] = Metabolic stability in liver microsomes, mouse; assay type: in vitro ADME
Protocol: (§8) Test Example 3: Evaluation of the Metabolic Stability of Liver Microsomes (Mouse and Human) In Vitro Microsomes were taken out from the −80° C. refrigerator, rapidly melted in a 37° C. water bath and placed on ice until ready to use. The test article was diluted with DMSO to prepare a 10 mM stock solution, and then diluted with acetonitrile to a 0.5 mM secondary stock solution. […] NADPH was diluted with Buffer C to a working solution of 6 mM for the starter solution. An acetonitrile solution containing an internal standard was prepared as the precipitant, and Verapamil-HCl was chosen as the internal standard at a concentration of 4 ng/ml. […] A separate plate with pointed bottom wells, noted as a precipitation plate, was added with 135 μL precipitant per well; 0 h samples were transferred to the plate after 10 min incubation and 15 μL of starter solution was added; the plate was placed on ice before centrifugation. The diluted starter solution was added in sufficient quantity to the dispensing plate to facilitate the multichannel pipette aspiration operation. The reaction was carried out on a warm incubation shaker and 15 μL of starter solution/sample is added to the plate using a multichannel pipette. The reaction was mixed with a slight shake to initiate the reaction, which was accurately timed and recorded using a timer; After the reaction time had elapsed, all the solution in the plate was aspirated using the multichannel pipette and added to the precipitation plate to terminate the reaction at that point in time. After all reactions had been terminated, the plates were shaken for ten minutes on a plate shaker at 600 rpm to precipitate the protein. The plate was centrifuged at 4° C. for 15 minutes at maximum rpm. 80 μL of supernatant was taken, 320 μL of pure water was added and mixed for LC-MS analysis.

[3] = Metabolic stability in liver microsomes, rat; assay type: in vitro ADME
Protocol: as §8, with “Microsomes” for “Test Example 3: Evaluation of the Metabolic Stability of Liver Microsomes (Mouse and Human) In Vitro Microsomes”

[4] = Metabolic stability in liver microsomes, monkey; assay type: in vitro ADME
Protocol: as §8, with “Microsomes” for “Test Example 3: Evaluation of the Metabolic Stability of Liver Microsomes (Mouse and Human) In Vitro Microsomes”

[5] = Metabolic stability in liver microsomes, dog; assay type: in vitro ADME
Protocol: as §8, with “Microsomes” for “Test Example 3: Evaluation of the Metabolic Stability of Liver Microsomes (Mouse and Human) In Vitro Microsomes”

plasma protein [6] = assay: Plasma protein binding (equilibrium dialysis), rat; assay type: in vitro ADME; settings: 1 μM, 5 h dialysis
[7] = Metabolic stability in liver microsomes, human; assay type: in vitro ADME
Protocol: as §8

Wee1 protein = Wee1 protein (Homo sapiens (Human), UniProt P30291); assay: TR-FRET binding of compound to Wee1 protein and Tracer 178; settings: Tracer 178, read-out: IC50, inhibitory activity against Wee1 kinase
Sequence of Wee1 protein (P30291 whole entry): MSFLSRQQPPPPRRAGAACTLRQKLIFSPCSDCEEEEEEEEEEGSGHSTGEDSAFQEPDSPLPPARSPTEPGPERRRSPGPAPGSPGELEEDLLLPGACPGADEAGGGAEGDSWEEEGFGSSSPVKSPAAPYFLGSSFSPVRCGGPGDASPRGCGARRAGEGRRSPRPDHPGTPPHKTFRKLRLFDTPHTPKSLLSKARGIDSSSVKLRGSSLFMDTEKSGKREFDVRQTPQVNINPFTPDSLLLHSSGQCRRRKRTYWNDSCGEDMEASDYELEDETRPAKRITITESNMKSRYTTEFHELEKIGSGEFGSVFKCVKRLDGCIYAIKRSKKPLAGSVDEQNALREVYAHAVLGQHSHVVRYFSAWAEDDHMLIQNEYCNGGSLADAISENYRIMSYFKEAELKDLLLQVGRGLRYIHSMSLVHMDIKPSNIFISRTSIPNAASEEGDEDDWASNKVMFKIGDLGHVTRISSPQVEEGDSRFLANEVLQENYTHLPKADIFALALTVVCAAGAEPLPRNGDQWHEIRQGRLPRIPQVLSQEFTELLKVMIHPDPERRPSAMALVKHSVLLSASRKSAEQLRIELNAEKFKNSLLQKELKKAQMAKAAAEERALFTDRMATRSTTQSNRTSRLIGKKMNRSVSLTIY
Protocol: First, solutions of the compounds in different concentration gradients were prepared. The compounds were dissolved in DMSO and the compounds were diluted 4 folds with a total of 10 dose points and 2 parallel replicates for each concentration.
The IC50 for inhibition of enzyme activity by the compounds was then calculated using GraphPad Prism 6 and fitted with a log (inhibitor) vs. response-Variable slope mode. The fitting equation was: Y=Bottom+(Top−Bottom)/(1+10^((Log IC50−X)*HillSlope)), where Y represents the percentage of residual enzyme activity known and X represents the known concentration of compound after the logarithm.

[8] = Membrane permeability in Caco-2 model; assay type: in vitro ADME; settings: human, Caco-2, pH 7.4
Protocol: as §7

hERG potassium channel = hERG potassium channel (Homo sapiens (Human), UniProt Q12809); assay: hERG potassium channel inhibition, patch clamp in CHO hERG cells
Sequence of hERG potassium channel (Q12809 whole entry): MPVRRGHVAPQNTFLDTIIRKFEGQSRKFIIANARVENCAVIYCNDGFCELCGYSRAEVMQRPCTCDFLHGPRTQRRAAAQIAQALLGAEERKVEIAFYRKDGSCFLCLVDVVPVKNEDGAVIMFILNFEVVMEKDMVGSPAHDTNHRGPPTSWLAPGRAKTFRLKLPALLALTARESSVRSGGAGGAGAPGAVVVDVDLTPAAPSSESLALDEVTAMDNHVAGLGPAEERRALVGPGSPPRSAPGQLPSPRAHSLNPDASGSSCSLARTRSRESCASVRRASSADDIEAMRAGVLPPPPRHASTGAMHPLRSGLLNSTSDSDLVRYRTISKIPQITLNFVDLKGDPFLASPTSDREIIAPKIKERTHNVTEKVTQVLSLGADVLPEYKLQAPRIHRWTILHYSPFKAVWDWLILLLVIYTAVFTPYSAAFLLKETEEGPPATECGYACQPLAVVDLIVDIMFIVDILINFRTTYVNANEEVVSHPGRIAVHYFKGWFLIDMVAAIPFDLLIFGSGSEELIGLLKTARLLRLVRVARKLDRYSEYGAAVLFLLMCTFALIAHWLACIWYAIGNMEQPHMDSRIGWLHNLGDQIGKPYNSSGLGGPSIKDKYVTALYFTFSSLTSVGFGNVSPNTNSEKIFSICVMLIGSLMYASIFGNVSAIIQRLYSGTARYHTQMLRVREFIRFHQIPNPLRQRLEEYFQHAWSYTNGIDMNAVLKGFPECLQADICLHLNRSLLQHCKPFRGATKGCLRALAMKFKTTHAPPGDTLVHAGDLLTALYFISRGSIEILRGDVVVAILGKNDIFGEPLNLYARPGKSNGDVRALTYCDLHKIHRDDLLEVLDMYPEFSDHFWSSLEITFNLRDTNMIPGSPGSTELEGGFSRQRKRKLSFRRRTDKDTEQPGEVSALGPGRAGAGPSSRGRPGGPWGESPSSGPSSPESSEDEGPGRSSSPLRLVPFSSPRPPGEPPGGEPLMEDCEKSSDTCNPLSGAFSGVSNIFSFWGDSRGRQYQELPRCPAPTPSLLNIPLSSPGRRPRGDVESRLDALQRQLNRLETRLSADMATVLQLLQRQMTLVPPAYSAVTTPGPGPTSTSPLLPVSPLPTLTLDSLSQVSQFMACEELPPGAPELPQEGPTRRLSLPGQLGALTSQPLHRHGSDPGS
Protocol: The cell line used for the patch clamp assay was a 10th generation CHO cell overexpressing hERG potassium channel cDNA. CHO hERG cells were cultured in Petri dishes or flasks at 37° C. in a 5% CO2 incubator. Cells were dropped onto circular slides 24-48 hours prior to electrophysiological experiments and cultured in cell culture medium and used for experiments after the cells had been adhered.
Cell culture medium (purchased from Invitrogen) Composition: • Ham's F12 medium • 10% (v/v) heat inactivated FBS • 100 μg/ml Hygromycin B (thaumatin) • 100 μg/ml Geneticin (Genomycin, G418)
Compound powders are dissolved in the extracellular solution and are subjected to a routine 5 to 10 minute sonication and shaking to ensure complete dissolution of the compound.
The final concentrations of compounds used for electrophysiological assays were 5, 20 μM and the final concentration of DMSO was 0.1%.
Cell membrane currents were recorded using a HEKA EPC-10 USB patch-clamp amplifier (HEKA Elektronik, Germany). • 1) A coverslip with a large number of uniformly growing individual CHO hERG cells on its surface was taken. Place in a continuous recording cell on an inverted microscope, perfused with extracellular fluid (approximately 1 ml per minute) and recorded continuously, waiting for the current to stabilize. • 2) Record HERG channel currents for individual cells using standard whole cell recording mode. The membrane voltage is first clamped at −80 mV and the cell is given a +20 mV stimulus for 5 s to activate the hERG potassium channel, then repolarized to −50 mV for 5 s to generate an outward tail current, which is continuously perfused until the current is stable, at which point the peak tail current is the control current value. • 3) The extracellular solution containing the drug to be tested was then perfused and recorded until the inhibitory effect of the drug on the hERG current reached a steady state, at which point the peak tail current was the post-drug current value. • 4) The cells are again perfused with the extracellular solution until the hERG current returns to or approaches the level prior to the addition of the drug, then the perfusion can be continued to test other concentrations or drugs. One or more compound or drug concentrations may be tested on each cell. • 5) Cisapride (C4740-10 mg, Sigma) is used as a positive control in the experiment to ensure that the cells used respond properly.

Compound | IC50 (HT-29 cells) [nM] | Plasma Protein binding (PPB) Mouse (plasma protein [1]) [%] | IC50 (BxPC3 cells) [nM] | IC50 (OVCAR-3 cells) [nM] | T1/2 liver microsomes Mouse [2] [min] | T1/2 liver microsomes Rat [3] [min] | T1/2 liver microsomes Monkey [4] [min] | T1/2 liver microsomes Dog [5] [min] | Plasma Protein binding (PPB) Rat (plasma protein [6]) [%] | T1/2 liver microsomes Human [7] [min] | IC50 (Wee1 protein) [nM] | IC50 (HK2 cells) [nM] | IC50 (HUVEC cells) [nM] | other results
C=CCn1c(=O)c2cnc(Nc3ccc(N4CCC5(CCN(C)CC5)CC4)cc3)nc2n1-c1ccc2c(n1)C(C)(O)C1(CC1)C2 (centres unmarked) [Compound 11] | 100 to 1000 | 92.17 | 100 to 1000 | 100 to 1000 |  |  |  |  |  |  |  | 1460 | > 10000 | Efflux Ration (Caco-2 cells): 21.59; Papp A to B (Caco-2 cells): 0.41 10^−6 cm/s; Papp B to A (Caco-2 cells): 8.85 10^−6 cm/s
C=CCn1c(=O)c2cnc(Nc3ccc(N4C[C@H]5CN(C)C[C@H]5C4)cc3)nc2n1-c1ccc2c(n1)C(O)(CC)C1(CC1)C2 (some centres unmarked) [Compound 28] | 100 to 1000 | 92.29 | 100 to 1000 | 100 to 1000 | 51.65 | 30.9 | 17.74 | 38.2 | 86.08 | 29.95 | ≤ 5 | 1190 | > 10000 | 
CC(C)NCC(O)COc1cccc2ccccc12 (centres unmarked) [Propranolol] |  |  |  |  |  |  |  |  |  |  |  |  |  | Papp A→B at 90 min, 10 µM ([8]; Caco2, 10 μM, 90 min): 14.7 ×10⁻⁶ cm/s; Papp B→A at 90 min, 10 µM ([8]; Caco2, 10 μM, 90 min): 13 ×10⁻⁶ cm/s; efflux ratio at 90 min, 10 µM ([8]; Caco2, read-out: Efflux Ration): 0.88
C=CCn1c(=O)c2cnc(Nc3ccc(N4CCC(N(C)C)CC4)c(C)c3)nc2n1-c1ccc2c(n1)C(C)(O)C1(CC1)C2 (racemic) [Compound 15] | 100 to 1000 | 93.51 | 100 to 1000 | 100 to 1000 |  |  |  |  |  |  |  | 760 | > 10000 | 
C=CCn1c(=O)c2cnc(Nc3ccc(N4CCN(C)CC4)cc3)nc2n1-c1ccc2c(n1)C(O)(C(F)(F)F)C1(CC1)C2 (centres unmarked) [Compound 32] | 100 to 1000 | 96.87 | 1000 to 2000 | 1000 to 2000 |  |  |  |  |  |  | 5 to 10 | 1140 | > 10000 | 
C=CCn1c(=O)c2cnc(Nc3ccc(N4CCN(C)CC4)cc3)nc2n1-c1ccc2c(n1)[C@H](O)C1(CC2)CC1 (single isomer, unassigned) [Compound 4b] | 100 to 1000 | 87.71 | 100 to 1000 | 100 to 1000 | 72.82 | >120 | 22.84 | 41.74 | 77.45 | 44.82 | ≤ 5 | 1290 | > 10000 | hERG Inhibition (hERG potassium channel; test concentration 5 μM): 23.84 ± 4.39%; hERG Inhibition (hERG potassium channel; test concentration 20 μM): 42.42 ± 5.58%; Efflux Ration (Caco-2 cells): 14.03; Papp A to B (Caco-2 cells): 0.94 10^−6 cm/s; Papp B to A (Caco-2 cells): 13.19 10^−6 cm/s

Now from value to molecule, other results behind:

IC50 (HT-29 cells) [nM] | Plasma Protein binding (PPB) Mouse (plasma protein [1]) [%] | IC50 (BxPC3 cells) [nM] | IC50 (OVCAR-3 cells) [nM] | T1/2 liver microsomes Mouse [2] [min] | T1/2 liver microsomes Rat [3] [min] | T1/2 liver microsomes Monkey [4] [min] | T1/2 liver microsomes Dog [5] [min] | Plasma Protein binding (PPB) Rat (plasma protein [6]) [%] | T1/2 liver microsomes Human [7] [min] | IC50 (Wee1 protein) [nM] | Compound | IC50 (HK2 cells) [nM] | IC50 (HUVEC cells) [nM] | other results
100 to 1000 |  | 100 to 1000 | 100 to 1000 | 96.19 | 31.42 | 14.22 | 22.8 |  | 26.24 |  | C=CCn1c(=O)c2cnc(Nc3ccc(N4CCC(N(C)C)CC4)c(C)c3)nc2n1-c1ccc2c(n1)[C@@](C)(O)C1(CC2)CC1 (single isomer, unassigned) [Compound 52a] | 480 | 3830 | 
 | 98.46 |  |  |  |  |  |  | 93.61 |  |  | [2H][C@]1(O)c2nc(-n3c4nc(Nc5ccc(N6CCC7(CCN(C)CC7)CC6)c(C)c5)ncc4c(=O)n3CC=C)ccc2CCC12CC2 [Compound 61b] |  |  | 
